Tests used:
[1] = test system: F21T-Na+ (human telomeric G-quadruplex, antiparallel); assay: FRET melting assay, human telomeric G4 in sodium buffer; format: binding; details: 200 nM DNA, PIPER and 3 not reliable (spectral overlap)
Method: (§1) With the library in hand, we began our investigation into G4 stabilization by conducting a Förster resonance energy transfer (FRET) melting assay to assess DNA stabilization using the procedure outlined by De Cian et. al. ^[13] […] The sequences examined (at 200 nM) were the human telomeric G4 in potassium buffer (F21T‐K^+, mixed parallel/hybrid G4) ^[14] and sodium buffer (F21T‐Na^+, antiparallel G4), ^[15] the c‐Myc promoter G‐quadruplex (FmycT‐K^+, parallel G4), ^[16] a polymorphic G4 found in T. brucei (FEBR1T‐K^+, a mixed G4 topology), ^[6b] and a hairpin duplex DNA sequence (F10T‐K^+). Together, these sequences represent targets for therapeutic intervention to treat parasitic infections, ^[6b] or cancer. ^[1b] The topology of each sequence was confirmed independently via circular dichroism (CD, Figure S1). […]
(§2) FRET melting assays were performed to assess ligand affinity for duplex and G-quadruplex
(§3) DNA. Briefly, oligonucleotides of interest were obtained labelled at the 5’ and 3’ ends with FAM (a fluorescence donor) and TAMRA (a fluorescence quencher), respectively. In the folded state, proximity of the donor and quencher result in no observed fluorescence from FAM, since energy is transferred non-radiatively to TAMRA by FRET. As the temperature is raised and the secondary structure denatures, the fluorophores move further apart and the fluorescence signal increases. From the resulting curve, the characteristic melting temperature (Tmax, also referred to as Tm) is defined as the temperature which corresponds to the maxima of the first derivative of the normalised fluorescence signal. The change in melting temperature (ΔTm) induced by the presence of a small molecule ligand provides an indication of the ligand’s ability to stabilise the DNA structure. FRET experiments were performed according to the […]
(§4) procedure reported by De Cian and co-workers[S3] on a Stratagene MX3005P. The method consisted of holding at 25 °C for 5 min, before heating at 1 °C/min to 96 °C in 1 °C increments, […]

[2] = test system: F21T-K+ (human telomeric G-quadruplex, mixed parallel/hybrid); assay: FRET melting assay, human telomeric G4 in potassium buffer; format: binding; details: 200 nM DNA, PIPER and 3 not reliable (spectral overlap)
Method: as §1, §2, §3, §4

[3] = test system: Febr1T (DNA, G4) GGGCAGGGGGTGATGGGGAGGAGCCAGGG; assay: FRET melting; details: 10 mM K+, 90 mM Li+; 10 mM Li cacodylate; 5 µM ligand, 200 nM DNA
L. major = assay: Leishmaniacidal activity, MTT assay; format: cell-based; details: Leishmania major; 72 h incubation, MTT absorbance; read-out: absolute EC50 L. major
Method: Doxorubicin, suramin and miltefosine were used as control compounds.[ ^6b , ^9 ] After incubation with varied concentrations of the compounds for 72 h, cell viability was measured using either an alamarBlue™ assay (for MRC5, HeLa and T. brucei) or MTT assay (for L. major). Absolute EC50 values and selectivity indexes were then calculated from dose‐response curves (Table 2 and S14).
Invitrogen). L. major promastigotes (MHOM/IL/80/Friedlin) were cultured at 28 °C, 5 % CO2 in modified RPMI-1640 medium (Thermo Fisher Scientific, Waltham, MA, USA) with 10% hiFBS. Parasites were split every other day and maintained in their experimental growth phase (below 2 million parasites per mL). […]
The results are expressed as the concentration of compound that reduces cell growth by 50 % versus untreated control cells (EC50) using GraphPad Prism 7 (GraphPad Software) to fit the data to a sigmoidal curve. Data are presented as the average of three independent measurements all conducted in triplicate conditions. […]
The leishmaniacidal activity of the compounds on promastigotes L. major (MHOM/IL/80/Friedlin) was carried out as previously described.[S14] Briefly, 4 × 10^6 / mL promastigotes were incubated for 72 h at 28 °C in 96-well plates (50 µL/well) in the presence of increasing concentration of compounds. Cell proliferation was determined using an MTT-based assay (Sigma-Aldrich). Thus, after the 72 h incubation, 10 µL of MTT (5 mg/ml) were added to each well and parasites were reincubated for 4 hrs at 28 °C. Then, 50 µL of 20 % SDS were added to each well. The plate was then incubated at 37°C for 4-16 hrs and analysed using an Infinite F200 plate reader (TECAN Austria, GmbH). The absorbance was measured […]
at a wavelength of 540 nm and the EC50 was calculated as described above. Data are presented as the average of three independent measurements, all conducted in triplicate conditions. […]

[4] = 5 μM ligand, 100 mM NaCl, 10 mM Li cacodylate
[5] = 5 μM ligand, 10 mM KCl, 90 mM LiCl, 10 mM Li cacodylate

| SMILES | ΔTm F21T-Na+ [1, 4] [°C] | ΔTm F21T-Na+ ([1]; 10 µM ligand) [°C] | ΔTm F21T-K+ [2, 5] [°C] | ΔTm F21T-K+ ([2]; 10 µM ligand) [°C] | ΔTm [3] [°C] | EC50 (L. major) [µM] | ΔTm F21T-Na+ ([1]; 1 µM ligand) [°C] | ΔTm F21T-K+ ([2]; 1 µM ligand) [°C] |
| --- | --- | --- | --- | --- | --- | --- | --- | --- |
| CN1CCN(CCCN2C(=O)c3ccc(Oc4ccc(C(C)(C)c5ccc(Oc6ccc7c(c6)C(=O)N(CCCN6CCN(C)CC6)C7=O)cc5)cc4)cc3C2=O)CC1 [Compound 9] | −4±1 | 6 ± 4 | −1±1 | 8 ± 3 | −4±1 | > 100 |  |  |
| CN1CCN(CCCN2C(=O)c3ccc4c5c(ccc(c35)C2=O)C(=O)N(CCCN2CCN(C)CC2)C4=O)CC1 [Compound 1] |  |  |  |  | 9±1 | 0.47 ± 0.07 |  |  |
| CN1CCN(CCCNC(=O)c2ccc(Oc3ccc(C(C)(C)c4ccc(Oc5ccc(C(=O)NCCCN6CCN(C)CC6)c(C(=O)NCCCN6CCN(C)CC6)c5)cc4)cc3)cc2C(=O)NCCCN2CCN(C)CC2)CC1 [Compound 11] | 1±1 | 9 ± 2 | 7±2 | 9 ± 1 | 6±1 | 18 ± 1 | -4 ± 1 | -2 ± 1 |
| CN1CCN(CCCN2C(=O)c3ccc4c5ccc6c7c(ccc(c8ccc(c3c48)C2=O)c75)C(=O)N(CCCN2CCN(C)CC2)C6=O)CC1 [Compound 3] | 35±4 | > 40 | 34±1 | 33 ± 1 |  | > 100 | 18 ± 2 | 10 ± 1 |
